Data published in EPA's ToxValDB 9.5.
“And” between values parts separate entries of the source, which are not always exact repeats. Identical values can stand only once. Counter-ions that a name gives are not always drawn.

Tested on: Rattus norvegicus
Conditions: for LD50: acute
[1] = subchronic, duration: 90 days, oral, gavage, M/F, hematological
[2] = subchronic, duration: 90 days, oral, diet, M/F, Sprague-Dawley, histopathology: nonneoplastic
[3] = subchronic, duration: 90 days, oral, diet, M/F, Sprague-Dawley, no effects
[4] = subchronic, duration: 90 days, oral, diet, M/F, no effects
[5] = subchronic, duration: 13 weeks, oral, diet, M/F, Wistar, hematological
[6] = subchronic, duration: 90 days, oral, diet, M/F, Wistar, hematological
[7] = chronic, duration: 2 years, oral, diet

In the case of `CCOC(=O)CNC(=O)[C@@H]1C[C@H](C)CC[C@H]1C(C)C`, the NOAEL [1] is reported as 75 mg/kg-day.
In the case of `CC(C)[C@@H]1CC[C@@H](C)C[C@H]1C(=O)NCCc1ccccn1` (relative stereo), the NOAEL [2] is reported as 5 mg/kg-day.
`O=c1[nH]sc2ccccc12` [1,2-Benzisothiazolin-3-one] gave an NOAEL (subchronic, duration: 90 days, oral, gavage, M/F, Wistar, histopathology: nonneoplastic) of 10 mg/kg-day.
`CCC(S)S` [1,?1-?Propanedithiol] was tested, and the NOAEL [3] was 0.705 mg/kg-day (2×) and 0.703 mg/kg-day (2×).
For `CC(=O)c1ccccn1` [1-(2-Pyridyl)-1-ethanone], the NOAEL [1] was 37 mg/kg-day.
`CC(=O)c1ccc(C)[nH]1` [1-(5-Methyl-1H-pyrrol-2-yl)ethan-1-one] was tested, and the NOAEL (subchronic, duration: 90 days, oral, gavage, M, hematological) was 48 mg/kg-day.
With `CC(=O)c1ccc2ccccc2c1` [2'-Acetonaphthone] the NOAEL (subchronic, duration: 90 days) was 33 mg/kg-day and the NOAEL [4] was 33 mg/kg-day.
`C[C@@H]1O[C@@H](O[C@H]2[C@H](O[C@@H]([C@H](O)[C@@H](O)C=O)[C@H](O)CO)O[C@H](CO)[C@H](O)[C@@H]2O)[C@@H](O)[C@H](O)[C@@H]1O` [2'-Fucosyllactose] was tested, and the NOAEL (subchronic, duration: 90 days, oral, gavage, M/F, Wistar, organ weight) was 2000 mg/kg-day.
In the case of `CC1CCCCC1NC(=O)c1c(F)c(F)c(F)c(F)c1F` (centres undefined) [2,3,4,5,6-Pentafluoro-N-(2-methylcyclohexyl)benzamide], the NOAEL (subchronic, duration: 90 days, oral, diet, M/F, Wistar, clinical signs) is reported as 55 mg/kg-day.
With `CC(C)CC1NC(CC(C)C)SC(CC(C)C)S1` (centres undefined) [2,4,6-Triisobutyl-5,6-dihydro-4H-1,3,5-dithiazine] the NOAEL (subchronic, duration: 90 days, oral, diet, M, histopathology: nonneoplastic) was 9.3 mg/kg-day.
Compound `NS(=O)(=O)c1ccccc1C(F)(F)F` [2-(Trifluoromethyl)benzenesulfonamide] has an NOAEL (short-term, duration: 28 days, organ weight) of 15 mg/kg-day.
Work on `O=Cc1cc2ccccc2o1` [2-Benzofurancarboxaldehyde] yielded an NOEL (subchronic, duration: 90 days, oral, diet) of 25 mg/kg-day.
`SCc1ccco1` [2-Furylmethanethiol] showed an NOAEL (subchronic, duration: 90 days, oral, gavage, M/F, body weight) of 3 mg/kg-day.
Compound `CCCCCC(C)=O` [2-Heptanone] has an NOAEL (subchronic, duration: 13 weeks, oral, gavage, M/F, organ weight) of 20 mg/kg-day.
With `CC(=O)SC1=C(C)OCC1` [2-Methyl-3-thioacetoxy-4,5-dihydrofuran] the NOAEL [5] was 1.4 mg/kg-day and the NOEL [6] was 1.4 mg/kg-day.
Compound `CC(C=O)=Cc1ccccc1` [2-Methylcinnamic aldehyde] has an NOAEL [4] of 220 mg/kg-day.
`CCCCCCCCCC(C)=O` [2-Undecanone] showed an NOAEL (subchronic, duration: 90 days, oral, clinical signs) of 50 mg/kg-day.
In the case of `CC1=C(S)CCO1` [2-methyl-4,5-dihydrofuran-3-thiol], the NOAEL [5] is reported as 1.4 mg/kg-day and the NOEL [6] is reported as 1.4 mg/kg-day.
For `CCC1=C(O)C(=O)C(C)O1` (centres undefined) [3(2H)-Furanone, 5-ethyl-4-hydroxy-2-methyl-], the NOAEL (chronic, duration: 2 years, M/F, body weight) was 200 mg/kg-day.
Compound `Cc1ccc(C(C)CC=O)o1` (centres undefined) [3-(5-Methyl-2-furyl)butanal] has an NOAEL (subchronic, duration: 90 days, oral, diet, M/F, Crj:CD, clinical signs) of 5.9 mg/kg-day.
With `Cn1cc(C(F)(F)F)cc(Cl)c1=O` [3-Chloro-1-methyl-5-(trifluoromethyl)pyridin-2-one] the LD50 (oral, F, Wistar, mortality) was 124 mg/kg.
For `CCCCCC/C=C/C(C)=O` [3-Decen-2-one], the LD50 (oral, mortality) was > 5000 mg/kg-day and the NOAEL (developmental, development) was ≥ 1000 mg/kg-day.
For `Cc1sc2nc(=O)[nH]c(N)c2c1C` [4-Amino-5,6-dimethylthieno(2,3-d)pyrimidin-2(1H)-one], the NOAEL (subchronic, duration: 13 weeks, oral, diet, M/F, Sprague-Dawley, no effects) was 60 mg/kg-day.
`COc1cc(C=O)ccc1O` [4-Hydroxy-3-methoxybenzaldehyde] was tested, and the NOAEL (chronic, duration: 2 years) was 1000 mg/kg-day and the NOAEL (subchronic, duration: 13 weeks, oral, gavage, no effects) was 400 mg/kg-day.
Compound `CC1=C(O)C(=O)CO1` [4-Hydroxy-5-methyl-3-furanone] has an NOAEL (chronic, duration: 2 years, oral, diet, M/F, Sprague-Dawley, body weight) of 200 mg/kg-day.
`CC(C)(C)C1CCC(O)CC1` (centres undefined) [4-tert-Butylcyclohexanol] showed an NOAEL (reproduction developmental, clinical signs) of 31.5 mg/kg-day and an NOAEL (short-term, duration: 28 days, clinical signs) of 30 mg/kg-day.
With `Cc1ccc2oc(=O)ccc2c1` [6-Methyl coumarin] the NOEL (subchronic, duration: 13 weeks) was 150 mg/kg-day.
`C=CCc1ccc(OC(C)=O)c(OC)c1` [(2-Methoxy-4-prop-2-enylphenyl) acetate] showed an NOAEL (subchronic, duration: 90 days, clinical chemistry) of 300 mg/kg-day.
For `C=C1CC[C@H]2O[C@]2(C)CC[C@@H]2[C@@H]1CC2(C)C` [(-)Carophyllene oxide], the NOAEL [2] was 109 mg/kg-day.
`C=C(C)[C@@H]1CC=C(C)CC1` [(S)-Limonene] gave an NOAEL (chronic, duration: 103 weeks, oral, gavage, F, mortality) of 215 mg/kg-day.
`CC(=O)N[C@@H]([C@@H](O)[C@H](O)[C@H](O)CO)[C@@H](O)CC(=O)C(=O)O` [Aceneuramic acid] showed an NOAEL (subchronic, duration: 13 weeks, oral, diet, M/F, Crj:CD, food consumption) of 493 mg/kg-day.
`CC=O` [Acetaldehyde] gave an NOAEL (subchronic, duration: 11 weeks, oral, drinking water, other) of 120 mg/kg-day.
Work on `CC(=NC#N)N(C)Cc1ccc(Cl)nc1` [Acetamiprid] yielded an NOAEL (reproduction developmental, duration: 16 days, oral, gavage, F, other) of 2.5 mg/kg-day.
Work on `CCCCOC(=O)CC(CC(=O)OCCCC)(OC(C)=O)C(=O)OCCCC` [Acetyl tributyl citrate] yielded an NOAEL (subchronic, duration: 90 days, oral, body weight) of 100 mg/kg-day.
`CC1=C(/C=C/C(C)=C/C=C/C(C)=C/C=C/C=C(C)/C=C/C=C(\C)C=O)C(C)(C)CCC1` [Apocarotenal] was tested, and the NOAEL (subchronic, duration: 13 weeks, histopathology: nonneoplastic) was 30 mg/kg-day and the LOAEL (subchronic, duration: 13 weeks, oral, M/F, Sprague-Dawley, histopathology: nonneoplastic) was 10 mg/kg-day.
`CC(=O)Nc1ccc(S(=O)(=O)[O-])c2cc(S(=O)(=O)[O-])c(N=Nc3ccc(N=Nc4ccc(S(=O)(=O)[O-])cc4)c4ccc(S(=O)(=O)[O-])cc34)c(O)c12.[Na+].[Na+].[Na+].[Na+]` [Black PN] gave an NOAEL (chronic, duration: 2 years, oral, diet, M/F, no effects) of 500 mg/kg-day.
Compound `O=C1C(c2[nH]c3ccc(S(=O)(=O)[O-])cc3c2O)=Nc2ccc(S(=O)(=O)[O-])cc21.[Na+].[Na+]` [C.I. Acid Blue 74] has an NOAEL [7] of 500 mg/kg-day and an NOAEL (chronic, duration: 2 years, oral, diet, growth) of 500 mg/kg-day.
In the case of `OC1OC[C@@H](O)[C@@H](O)[C@H]1O` (stereo partly drawn) [D-Ribose], the NOAEL (subchronic, duration: 90 days, oral, diet, M/F, Wistar, body weight) is reported as 3600 mg/kg-day.
`CCCCC(CC)COC(=O)c1ccccc1C(=O)OCC(CC)CCCC` (centres undefined) [Di(2-ethylhexyl) phthalate] was tested, and the NOAEL (developmental, Sprague-Dawley, development) was 5 mg/kg-day.
In the case of `CC(C)CCCCCCOC(=O)c1ccccc1C(=O)OCCCCCCC(C)C` [Diisononyl phthalate], the NOAEL (chronic, duration: 2 years, M/F, Fischer 344, histopathology: nonneoplastic) is reported as 15 mg/kg-day.
`CCOC(=O)CCCSC(C)=O` [Ethyl 4-(acetylthio)butyrate] gave an NOEL (subchronic, duration: 13 weeks, oral, diet) of 6.5 mg/kg-day, an NOAEL (subchronic, duration: 90 days, oral) of 6.63 mg/kg-day and an NOAEL [4] of 6.63 mg/kg-day.
`C#CCN1C(=O)COc2cc(F)c(N3C(=O)C4=C(CCCC4)C3=O)cc21` [Flumioxazin] gave an NOAEL (chronic, duration: 2 years, hematological) of 1.8 mg/kg-day, an NOAEL (developmental, development) of 3 mg/kg-day and an NOAEL (subchronic, duration: 90 days, oral, hematological) of 2.2 mg/kg-day.
`O=Cc1ccco1` [Furfural] gave an NOEL (subchronic, duration: 90 days, oral, diet, M/F, Fischer 344, hematological) of 54 mg/kg-day.
Compound `OC[C@H]1O[C@H](OC[C@H]2O[C@@H](O)[C@@H](O)[C@@H](O)[C@@H]2O[C@@H]2O[C@H](CO)[C@@H](O)[C@H](O)[C@@H]2O)[C@H](O)[C@@H](O)[C@H]1O` [Galactomannan] has an NOEL (short-term, duration: 28 days, M/F, Sprague-Dawley, clinical chemistry) of 230 mg/kg-day.
For `Cl.N[C@@H](C=O)[C@@H](O)[C@H](O)[C@H](O)CO` [Glucosamine hydrochloride], the NOAEL (chronic, duration: 52 weeks) was 2130 mg/kg-day.
With `O=C1O[C@H]([C@H](O)CO)C(O)=C1O` [Isoascorbic acid] the NOAEL (chronic, duration: 2 years, oral, drinking water, M/F, Fischer 344, body weight) was 650 mg/kg-day.
Work on `CCCCC/C=C/C/C=C/CCCCCCCC(=O)O[C@H](COC(=O)CCCCCCCCCCCCCCC)COP(=O)([O-])OCC[N+](C)(C)C` [Lecithin] yielded an NOAEL (chronic, duration: 24 weeks, oral, gavage, Wistar, no effects) of 3750 mg/kg-day.
With `CCCCCC1C(=O)CCC1CC(=O)OC` (centres undefined) [Methyl dihydrojasmonate] the NOAEL [3] was 100 mg/kg-day.
With `CCCCCCCCCCCC[N+](C)(C)[O-]` [N,N-Dimethyldodecylamine-N-oxide] the NOAEL [7] was 50 mg/kg-day.
With `CC(C)=CCC/C(C)=C/CNC(=O)C1CC1` [N-3,7-Dimethyl-2,6-octadienyl cyclopropylcarboxamide, (2E)-] the NOAEL [4] was 73.3 mg/kg-day.
`CCCC(CCC)NC(=O)c1ccc2c(c1)OCO2` [N-(1-Propylbutyl)-1,3-benzodioxole-5-carboxamide] showed an NOEL (chronic, duration: 93 days) of 20 mg/kg-day.
For `COc1ccc(CCC(=O)c2c(O)cc(O[C@@H]3O[C@H](CO)[C@@H](O)[C@H](O)[C@H]3O[C@@H]3O[C@@H](C)[C@H](O)[C@@H](O)[C@H]3O)cc2O)cc1O` [Neohesperidin dihydrochalcone], the NOAEL (repeat dose other, no effects) was 500 mg/kg-day.
Compound `O=C1CN(/N=C/c2ccc([N+](=O)[O-])o2)C(=O)N1` [Nitrofurantoin] has an LEL (reproduction developmental, oral, reproduction) of 10 mg/kg-day.
With `C1CCNCC1` [Piperidine] the NOAEL (subchronic, duration: 90 days, oral, M/F, Sprague-Dawley, clinical chemistry) was 5 mg/kg-day.
`O=C(/C=C/c1ccc(O)c(O)c1)O[C@H](Cc1ccc(O)c(O)c1)C(=O)O` [Rosmarinic acid] gave an NOAEL (subchronic, duration: 90 days, oral, gavage, M/F, Sprague-Dawley, no effects) of 300 mg/kg-day.
Work on `C=C1CCC2(C(C)C)CC12` (centres undefined) [Sabinen] yielded an NOAEL (subchronic, duration: 90 days, oral, diet, M/F, Sprague-Dawley, hematological) of 222 mg/kg-day.
`O=S([O-])S(=O)(=O)[O-].[Na+].[Na+]` [Sodium metabisulfite] gave an NOAEL (chronic, duration: 2 years, oral, diet, M/F, histopathology: nonneoplastic) of 72 mg/kg-day.
